According to PubChem BioAssay (NCI):
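Values below derive from 48-hour exposures of cells grown in 96-well plates, with endpoints linearly interpolated between the two concentrations bracketing the appropriate inhibition level. TGI: concentration producing complete growth inhibition.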

Columns and labels:
Assay in all cases: NCI tumour cell line growth inhibition, 48 h
SW-620 colon = system: SW-620 colon
MALME-3M melanoma = system: MALME-3M melanoma
SN12K1 renal = system: SN12K1 renal
NCI-H226 lung = system: NCI-H226 lung
HOP-18 NSCLC = system: HOP-18 NSCLC
A549 NSCLC = system: A549 NSCLC
RPMI-8226 leukemia = system: RPMI-8226 leukemia
HCT-116 colon = system: HCT-116 colon
NCI-H522 lung = system: NCI-H522 lung
OVCAR-8 ovarian = system: OVCAR-8 ovarian
COLO 205 colon = system: COLO 205 colon
M19-MEL melanoma = system: M19-MEL melanoma
SK-MEL-2 melanoma = system: SK-MEL-2 melanoma
SK-MEL-28 melanoma = system: SK-MEL-28 melanoma
UACC-257 melanoma = system: UACC-257 melanoma
HL-60(TB) leukemia = system: HL-60(TB) leukemia
HCT-15 colon = system: HCT-15 colon
SK-MEL-5 melanoma = system: SK-MEL-5 melanoma
EKVX NSCLC = system: EKVX NSCLC
KM20L2 colon = system: KM20L2 colon
DMS 273 small cell lung = system: DMS 273 small cell lung
SF-295 CNS = system: SF-295 CNS
UACC-62 melanoma = system: UACC-62 melanoma
SK-OV-3 ovarian = system: SK-OV-3 ovarian
RXF 393 renal = system: RXF 393 renal
SF-539 CNS = system: SF-539 CNS
U251 CNS = system: U251 CNS
MCF7 breast = system: MCF7 breast
HCC-2998 colon = system: HCC-2998 colon
HOP-92 NSCLC = system: HOP-92 NSCLC
OVCAR-5 ovarian = system: OVCAR-5 ovarian
SF-268 CNS = system: SF-268 CNS
HT29 colon = system: HT29 colon
NCI/ADR-RES ovarian = system: NCI/ADR-RES ovarian
HOP-62 NSCLC = system: HOP-62 NSCLC
LOX IMVI melanoma = system: LOX IMVI melanoma
KM12 colon = system: KM12 colon
XF 498 CNS = system: XF 498 CNS
NCI-H460 lung = system: NCI-H460 lung
IGROV1 ovarian = system: IGROV1 ovarian
CAKI-1 renal = system: CAKI-1 renal
UO-31 renal = system: UO-31 renal
A498 renal = system: A498 renal
K-562 leukemia = system: K-562 leukemia
P388 leukemia = system: P388 leukemia
CCRF-CEM leukemia = system: CCRF-CEM leukemia
SNB-19 CNS = system: SNB-19 CNS
MOLT-4 leukemia = system: MOLT-4 leukemia
OVCAR-3 ovarian = system: OVCAR-3 ovarian
NCI-H23 lung = system: NCI-H23 lung
DLD-1 colon = system: DLD-1 colon
P388/ADR leukemia = system: P388/ADR leukemia
DMS 114 small cell lung = system: DMS 114 small cell lung
SNB-75 CNS = system: SNB-75 CNS
OVCAR-4 ovarian = system: OVCAR-4 ovarian
SN12C renal = system: SN12C renal
SNB-78 CNS = system: SNB-78 CNS

In the case of `COc1cc(C2c3cc4c(cc3[C@@H](Nc3ccc5c(c3)OCO5)C3COC(=O)[C@H]23)OCO4)cc(OC)c1O` (some centres undefined), the TGI (SW-620 colon) was > 37.6 µM, the TGI (MALME-3M melanoma) was 10.1 µM and the TGI (SN12K1 renal) was 5.82 µM. For the same compound, the TGI (NCI-H226 lung) was 2.06 µM, the TGI (HOP-18 NSCLC) was 11 µM and the TGI (A549 NSCLC) was 2.56 µM. The TGI (RPMI-8226 leukemia) was 8.59 µM, the TGI (HCT-116 colon) was 15.7 µM and the TGI (NCI-H522 lung) was 4.49 µM. The TGI (OVCAR-8 ovarian) was > 20.5 µM, the TGI (COLO 205 colon) was 7.41 µM and the TGI (M19-MEL melanoma) was > 100 µM. For the same compound, the TGI (SK-MEL-2 melanoma) was 5.96 µM, the TGI (SK-MEL-28 melanoma) was > 95.3 µM and the TGI (UACC-257 melanoma) was 8.38 µM. It also gave a TGI (HL-60(TB) leukemia) of 0.977 µM, a TGI (HCT-15 colon) of 2.15 µM and a TGI (SK-MEL-5 melanoma) of 2.64 µM. The TGI (EKVX NSCLC) was 16.3 µM, the TGI (KM20L2 colon) was > 24.3 µM and the TGI (DMS 273 small cell lung) was 1.4 µM. For the same compound, the TGI (SF-295 CNS) was 5.3 µM, the TGI (UACC-62 melanoma) was 5.35 µM and the TGI (SK-OV-3 ovarian) was 16.3 µM. For the same compound, the TGI (RXF 393 renal) was 6.15 µM, the TGI (SF-539 CNS) was 2.41 µM and the TGI (U251 CNS) was 1.74 µM. The TGI (MCF7 breast) was 10.1 µM, the TGI (HCC-2998 colon) was 3.42 µM and the TGI (HOP-92 NSCLC) was 8.37 µM. The TGI (OVCAR-5 ovarian) was > 59.4 µM, the TGI (SF-268 CNS) was 30 µM and the TGI (HT29 colon) was 6.07 µM. For the same compound, the TGI (NCI/ADR-RES ovarian) was 41.6 µM, the TGI (HOP-62 NSCLC) was 0.715 µM and the TGI (LOX IMVI melanoma) was 3.4 µM. For the same compound, the TGI (KM12 colon) was 6.91 µM, the TGI (XF 498 CNS) was 16.7 µM and the TGI (NCI-H460 lung) was 1.57 µM. The TGI (IGROV1 ovarian) was 35 µM, the TGI (CAKI-1 renal) was 1.43 µM and the TGI (UO-31 renal) was 9.7 µM. It also gave a TGI (A498 renal) of 1.84 µM, a TGI (K-562 leukemia) of 9.74 µM and a TGI (P388 leukemia) of 0.393 µM. It also gave a TGI (CCRF-CEM leukemia) of 5.37 µM, a TGI (SNB-19 CNS) of 30.1 µM and a TGI (MOLT-4 leukemia) of 0.236 µM. It also gave a TGI (OVCAR-3 ovarian) of 22.2 µM, a TGI (NCI-H23 lung) of 4.07 µM and a TGI (DLD-1 colon) of 5.45 µM. The TGI (P388/ADR leukemia) was 0.71 µM.
In the case of `O=C(O)CCCCCCCCC(=O)O`, the TGI (SW-620 colon) was > 500 µM, the TGI (MALME-3M melanoma) was > 500 µM and the TGI (SN12K1 renal) was > 500 µM. For the same compound, the TGI (NCI-H226 lung) was > 500 µM, the TGI (HOP-18 NSCLC) was > 500 µM and the TGI (A549 NSCLC) was > 500 µM. The TGI (RPMI-8226 leukemia) was > 500 µM, the TGI (HCT-116 colon) was > 500 µM and the TGI (DMS 114 small cell lung) was > 500 µM. The TGI (NCI-H522 lung) was > 500 µM, the TGI (OVCAR-8 ovarian) was > 500 µM and the TGI (COLO 205 colon) was > 500 µM. The TGI (M19-MEL melanoma) was > 500 µM, the TGI (SK-MEL-2 melanoma) was > 500 µM and the TGI (SK-MEL-28 melanoma) was > 500 µM. The TGI (UACC-257 melanoma) was > 500 µM, the TGI (HL-60(TB) leukemia) was > 281 µM and the TGI (HCT-15 colon) was > 500 µM. For the same compound, the TGI (SK-MEL-5 melanoma) was > 500 µM, the TGI (EKVX NSCLC) was > 500 µM and the TGI (KM20L2 colon) was > 500 µM. For the same compound, the TGI (DMS 273 small cell lung) was > 500 µM, the TGI (SF-295 CNS) was > 500 µM and the TGI (UACC-62 melanoma) was > 500 µM. For the same compound, the TGI (SK-OV-3 ovarian) was > 500 µM, the TGI (RXF 393 renal) was > 500 µM and the TGI (SF-539 CNS) was > 79.3 µM. The TGI (U251 CNS) was > 500 µM, the TGI (SNB-75 CNS) was > 79.3 µM and the TGI (MCF7 breast) was > 500 µM. For the same compound, the TGI (HCC-2998 colon) was > 500 µM, the TGI (HOP-92 NSCLC) was > 500 µM and the TGI (OVCAR-5 ovarian) was > 500 µM. For the same compound, the TGI (OVCAR-4 ovarian) was > 500 µM, the TGI (SF-268 CNS) was > 500 µM and the TGI (HT29 colon) was > 500 µM. For the same compound, the TGI (NCI/ADR-RES ovarian) was > 500 µM, the TGI (HOP-62 NSCLC) was > 500 µM and the TGI (LOX IMVI melanoma) was > 500 µM. The TGI (KM12 colon) was > 500 µM, the TGI (XF 498 CNS) was > 50 µM and the TGI (NCI-H460 lung) was > 500 µM. For the same compound, the TGI (IGROV1 ovarian) was > 500 µM, the TGI (CAKI-1 renal) was > 500 µM and the TGI (SN12C renal) was > 500 µM. For the same compound, the TGI (UO-31 renal) was > 500 µM, the TGI (A498 renal) was > 23.2 µM and the TGI (K-562 leukemia) was > 500 µM. For the same compound, the TGI (P388 leukemia) was > 281 µM, the TGI (CCRF-CEM leukemia) was > 500 µM and the TGI (SNB-19 CNS) was > 79.3 µM. For the same compound, the TGI (MOLT-4 leukemia) was > 500 µM, the TGI (OVCAR-3 ovarian) was > 500 µM and the TGI (SNB-78 CNS) was > 500 µM. For the same compound, the TGI (NCI-H23 lung) was > 500 µM, the TGI (DLD-1 colon) was > 500 µM and the TGI (P388/ADR leukemia) was > 500 µM.
